The source of these data is patent US20230146395A1, “Substituted Pyrimidines and Uses Thereof” (Verge Analytics, Inc., priority 2020, published 2023).

pEC50, pIC50: −log10 of the molar value. Structures can show the parent of a compound that is named as a salt.

The target of one assay is T1, PI3Kα (Homo sapiens, UniProt P42336).
T1 construct: Full-length N-terminal; FLAG (N); host or cells: SF9 cells (baculovirus)
The assay is described as follows: Inhibition of PI3K isoforms: PI3Kα (microfluidic electrophoresis kinase assay, PIP2/PS substrate). Format: biochemical. Conditions: p110α/p85α, ATP 90 μM; read-out: PI3Ka IC50. As for the experimental part:
(§1) The kinase substrate was prepared by mixing and sonicating fluorescently-labeled phosphatidylinositol 4,5-phosphate (PIP2) with phospho-L-serine (PS) at 1:20 ratio in 50 mM HEPES buffer pH7.5.
The kinase reactions were assembled in 384-well plates (Greiner) in a total volume of […] as follows. The kinase proteins were pre-diluted in an assay buffer comprising 50 mM HEPES, pH 7.5, 0.012% CHAPS, 1 mM DTT, 10 mM Na3VaO4, 10 mM 3-GP, 3 mM MgCl2, and 40 mM NaCl2, and dispensed into a 384-well plate (10 μL per well). Test compounds were serially pre-diluted in DMSO and added to the protein samples by acoustic dispensing (Labcyte Echo). The concentration of DMSO was equalized to 1% in all samples. All test compounds were tested at 12 concentrations. The control samples (0%-inhibition in the absence of inhibitor, DMSO only) and 100%-inhibition (in the absence of enzyme) were assembled in replicates of four and were used to calculate %-inhibition in the presence of test compounds. The reactions were initiated by addition of 10 μL of the PIP2/PS substrate supplemented with ATP. The final concentration of enzymes was 0.5 nM (PI3Kα), 1 nM (PI3Kβ), 10 nM (PI3Kγ), and 0.25 nM (PI3Kδ). The final concentration of ATP was 90 μM (PI3Kα), 60 μM (PI3Kβ), 100 μM (PI3Kγ), and 90 μM (PI3Kδ). The final concentration of PIP2/PS substrate was 1 μM (PIP2). The kinase reactions were allowed to proceed for 3 h at room temperature. Following incubation, the reactions were quenched by addition of 50 μL of termination buffer (100 mM HEPES, pH 7.5, 0.01% Triton X-100, 20 mM EDTA). Terminated plates were analyzed on a microfluidic electrophoresis instrument (Caliper LabChip® 3000, Caliper Life Sciences/Perkin Elmer). The change in the relative fluorescence intensity of the PI(4,5)P substrate and PI(3,4,5)P product peaks was measured. The activity in each test sample was determined as the product to sum ratio (PSR): P/(S+P), where P is the peak height of the product, and S is the peak height of the substrate. Percent inhibition (Pinh) was determined using the following equation:
Pinh=(PSR0% inh−PSRcompound)/(PSR0% inh−PSR100% inh)*100
in which PSRcompound is the product/sum ratio in the presence of compound, PSR0% inh is the product/sum ratio in the absence of compound, and the PSR100% inh is the product/sum ratio in the absence of the enzyme.

The target of another assay is T2, PI3Kβ (Homo sapiens, UniProt P42338).
T2 construct: Full-length N-terminal; GST (N); host or cells: SF9 cells (baculovirus)
T2 sequence (P42338 whole entry): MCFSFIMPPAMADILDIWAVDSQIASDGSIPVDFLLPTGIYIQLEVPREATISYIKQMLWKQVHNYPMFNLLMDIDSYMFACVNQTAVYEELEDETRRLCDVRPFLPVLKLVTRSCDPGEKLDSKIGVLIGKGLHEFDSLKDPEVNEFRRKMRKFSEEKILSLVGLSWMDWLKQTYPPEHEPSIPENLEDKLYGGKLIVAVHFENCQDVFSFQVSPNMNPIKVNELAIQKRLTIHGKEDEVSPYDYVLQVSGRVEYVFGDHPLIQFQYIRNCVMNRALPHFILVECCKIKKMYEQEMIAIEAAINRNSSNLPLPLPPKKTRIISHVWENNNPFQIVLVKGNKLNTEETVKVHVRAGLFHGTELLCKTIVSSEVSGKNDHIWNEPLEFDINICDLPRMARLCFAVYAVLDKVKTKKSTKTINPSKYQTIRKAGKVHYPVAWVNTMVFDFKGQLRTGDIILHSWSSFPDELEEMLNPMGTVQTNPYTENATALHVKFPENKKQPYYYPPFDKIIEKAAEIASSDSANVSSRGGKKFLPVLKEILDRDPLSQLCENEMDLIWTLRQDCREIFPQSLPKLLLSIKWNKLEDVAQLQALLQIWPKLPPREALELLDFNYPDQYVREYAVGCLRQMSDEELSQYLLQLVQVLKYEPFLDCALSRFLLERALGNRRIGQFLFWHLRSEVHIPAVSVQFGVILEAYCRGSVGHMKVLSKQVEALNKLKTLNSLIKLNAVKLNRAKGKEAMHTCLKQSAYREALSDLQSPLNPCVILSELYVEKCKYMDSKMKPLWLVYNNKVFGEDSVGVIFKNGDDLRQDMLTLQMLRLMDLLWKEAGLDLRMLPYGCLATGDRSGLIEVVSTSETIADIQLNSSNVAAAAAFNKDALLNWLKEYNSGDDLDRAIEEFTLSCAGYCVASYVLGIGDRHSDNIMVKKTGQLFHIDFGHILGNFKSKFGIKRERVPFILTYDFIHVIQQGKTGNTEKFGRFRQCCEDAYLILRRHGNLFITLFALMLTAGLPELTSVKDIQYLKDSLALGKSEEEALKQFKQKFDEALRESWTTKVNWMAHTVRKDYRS
T2 sequence (P27986 whole entry partner): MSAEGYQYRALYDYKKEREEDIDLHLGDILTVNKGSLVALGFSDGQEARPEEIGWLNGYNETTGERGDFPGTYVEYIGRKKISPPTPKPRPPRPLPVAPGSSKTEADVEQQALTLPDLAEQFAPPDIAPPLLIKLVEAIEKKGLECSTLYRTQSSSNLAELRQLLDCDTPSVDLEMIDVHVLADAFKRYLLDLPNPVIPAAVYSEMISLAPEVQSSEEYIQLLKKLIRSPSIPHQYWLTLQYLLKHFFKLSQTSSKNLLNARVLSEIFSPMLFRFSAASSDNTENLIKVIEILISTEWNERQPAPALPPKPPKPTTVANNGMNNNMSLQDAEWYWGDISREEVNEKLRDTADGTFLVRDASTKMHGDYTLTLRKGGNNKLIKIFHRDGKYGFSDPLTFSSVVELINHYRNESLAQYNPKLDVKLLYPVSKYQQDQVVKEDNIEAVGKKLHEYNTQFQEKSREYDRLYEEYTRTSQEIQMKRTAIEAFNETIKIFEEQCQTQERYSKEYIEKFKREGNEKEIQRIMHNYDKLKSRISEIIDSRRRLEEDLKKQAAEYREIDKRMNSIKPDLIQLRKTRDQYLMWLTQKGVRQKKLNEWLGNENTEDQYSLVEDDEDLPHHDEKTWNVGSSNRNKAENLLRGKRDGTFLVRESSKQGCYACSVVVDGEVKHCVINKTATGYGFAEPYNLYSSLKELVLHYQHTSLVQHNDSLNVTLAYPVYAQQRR
The assay is described as follows: Inhibition of PI3K isoforms: PI3Kβ (microfluidic electrophoresis kinase assay, PIP2/PS substrate). Format: biochemical. Conditions: p110β/p85α, ATP 60 μM; read-out: PI3Kb IC50. As for the experimental part: as §1
(§2) The kinase reactions were assembled in 384-well plates (Greiner) in a total volume of […] as follows. The kinase proteins were pre-diluted in an assay buffer comprising 50 mM HEPES, pH 7.5, 0.012% CHAPS, 1 mM DTT, 10 mM Na3VaO4, 10 mM 3-GP, 3 mM MgCl2, and 40 mM NaCl2, and dispensed into a 384-well plate (10 μL per well). Test compounds were serially pre-diluted in DMSO and added to the protein samples by acoustic dispensing (Labcyte Echo). The concentration of DMSO was equalized to 1% in all samples. All test compounds were tested at 12 concentrations. […] Terminated plates were analyzed on a microfluidic electrophoresis instrument (Caliper LabChip® 3000, Caliper Life Sciences/Perkin Elmer). The change in the relative fluorescence intensity of the PI(4,5)P substrate and PI(3,4,5)P product peaks was measured. The activity in each test sample was determined as the product to sum ratio (PSR): P/(S+P), where P is the peak height of the product, and S is the peak height of the substrate. Percent inhibition (Pinh) was determined using the following equation: […]

For a further assay, the target named is T3, PI3Kγ (Homo sapiens, UniProt P48736).
T3 construct: Full length N-terminal; His (N); host or cells: SF9 cells (baculovirus)
T3 sequence (P48736 whole entry): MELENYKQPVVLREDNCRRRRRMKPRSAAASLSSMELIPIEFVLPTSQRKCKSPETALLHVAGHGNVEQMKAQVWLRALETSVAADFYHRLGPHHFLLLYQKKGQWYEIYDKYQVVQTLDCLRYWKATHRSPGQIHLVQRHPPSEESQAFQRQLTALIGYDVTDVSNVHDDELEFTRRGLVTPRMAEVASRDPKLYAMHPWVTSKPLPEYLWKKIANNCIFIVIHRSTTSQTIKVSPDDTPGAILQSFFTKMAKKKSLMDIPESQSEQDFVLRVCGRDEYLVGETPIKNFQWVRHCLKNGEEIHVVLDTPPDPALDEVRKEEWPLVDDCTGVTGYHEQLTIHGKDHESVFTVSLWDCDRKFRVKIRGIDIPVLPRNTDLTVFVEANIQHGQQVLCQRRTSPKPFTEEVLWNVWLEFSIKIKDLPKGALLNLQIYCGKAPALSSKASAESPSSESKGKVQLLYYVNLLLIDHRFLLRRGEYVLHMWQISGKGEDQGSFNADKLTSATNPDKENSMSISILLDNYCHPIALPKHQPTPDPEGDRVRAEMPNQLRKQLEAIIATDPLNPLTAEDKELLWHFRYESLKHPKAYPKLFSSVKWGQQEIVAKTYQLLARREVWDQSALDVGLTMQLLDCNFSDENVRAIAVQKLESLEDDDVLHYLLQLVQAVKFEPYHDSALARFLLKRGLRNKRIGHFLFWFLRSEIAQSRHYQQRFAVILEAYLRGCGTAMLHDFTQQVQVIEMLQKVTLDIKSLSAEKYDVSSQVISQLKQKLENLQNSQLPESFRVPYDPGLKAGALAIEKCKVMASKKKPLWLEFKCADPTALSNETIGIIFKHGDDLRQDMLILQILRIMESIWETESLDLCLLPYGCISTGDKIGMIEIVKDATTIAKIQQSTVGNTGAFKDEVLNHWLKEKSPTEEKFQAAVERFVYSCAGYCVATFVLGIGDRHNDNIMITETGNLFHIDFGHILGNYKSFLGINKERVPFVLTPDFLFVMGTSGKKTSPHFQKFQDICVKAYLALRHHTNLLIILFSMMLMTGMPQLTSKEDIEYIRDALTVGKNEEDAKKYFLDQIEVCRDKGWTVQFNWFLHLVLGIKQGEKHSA
The assay is described as follows: Inhibition of PI3K isoforms: PI3Kγ (microfluidic electrophoresis kinase assay, PIP2/PS substrate). Conditions: p120γ, ATP 100 μM; read-out: PI3Kg IC50. The format is biochemical. Here is the method: as §1, §2

Assay [1] concerns HEK 293T transfected with plasmids containing TDP-43 Q331K mutation. Put plainly: HEK/TDP Survival assay (Cell-Titer-Glo, 48 hrs, maximal effect of rescue). The following applies: Homo sapiens, HEK 293T with TDP-43 Q331K, (n) in brackets. The format is cell-based. In a few lines:
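Cells transfected with TDP-43 Q331K, treated 48 h at eight concentrations (6 replicates); ATP read by CellTiter-Glo luminescence versus untreated wells on each plate. Effect per dose as Hedge's g with Empirical Bayes false-sign-rate correction (signed log s >3 = hit); value is maximal rescue from the dose-response curve.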

Assay [2] has as its system ALS patient (SOD1 A4V) iPSC derived motor neurons. Put plainly: iPSC MN Survival assay (GFP imaging, six days, hazard ratio from Cox regression). Format: cell-based. The following applies: Homo sapiens, survival rescue, read-out: C9 iPSC MN Significant survival rescue EC50.

T1 sequence (P42336 whole entry): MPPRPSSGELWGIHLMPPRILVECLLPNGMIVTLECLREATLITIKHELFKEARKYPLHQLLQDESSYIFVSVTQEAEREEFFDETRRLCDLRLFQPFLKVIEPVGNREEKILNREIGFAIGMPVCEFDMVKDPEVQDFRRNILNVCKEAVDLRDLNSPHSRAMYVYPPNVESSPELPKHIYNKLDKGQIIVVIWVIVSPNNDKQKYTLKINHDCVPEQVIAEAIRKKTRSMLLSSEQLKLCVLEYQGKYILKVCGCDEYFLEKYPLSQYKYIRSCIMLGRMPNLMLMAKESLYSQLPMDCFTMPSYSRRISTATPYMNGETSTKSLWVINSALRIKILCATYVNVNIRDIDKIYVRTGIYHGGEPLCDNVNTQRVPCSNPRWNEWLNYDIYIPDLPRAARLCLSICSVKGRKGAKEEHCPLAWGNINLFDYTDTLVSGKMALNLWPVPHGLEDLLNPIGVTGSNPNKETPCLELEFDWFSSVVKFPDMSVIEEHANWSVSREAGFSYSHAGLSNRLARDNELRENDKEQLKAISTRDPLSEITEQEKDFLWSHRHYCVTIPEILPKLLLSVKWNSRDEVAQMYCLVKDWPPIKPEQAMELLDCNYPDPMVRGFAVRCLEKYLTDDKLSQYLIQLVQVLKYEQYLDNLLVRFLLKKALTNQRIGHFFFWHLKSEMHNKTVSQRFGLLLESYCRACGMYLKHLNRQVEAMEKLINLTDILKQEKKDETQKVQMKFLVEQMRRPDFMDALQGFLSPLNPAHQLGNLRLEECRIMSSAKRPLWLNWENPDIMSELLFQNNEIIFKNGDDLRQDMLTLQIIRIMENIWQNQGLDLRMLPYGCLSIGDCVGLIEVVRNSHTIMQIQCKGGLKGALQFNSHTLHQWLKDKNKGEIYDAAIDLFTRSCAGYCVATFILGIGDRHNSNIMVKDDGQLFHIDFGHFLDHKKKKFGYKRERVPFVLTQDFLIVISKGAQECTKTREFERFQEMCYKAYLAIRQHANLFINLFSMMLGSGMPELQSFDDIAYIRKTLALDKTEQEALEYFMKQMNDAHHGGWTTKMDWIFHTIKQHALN
T1 sequence (P27986 whole entry partner): as the sequence (P27986 whole entry partner) above

On to `c1ccc(-c2cc(Nc3nc(N4CCOCC4)c4oc(-c5ccncc5)cc4n3)[nH]n2)cc1` [Compound 1, 4-morpholino-N-(3-phenyl-1H-pyrazol-5-yl)-6-(pyridin-4-yl)furo[3,2-d]pyrimidin-2-amine hydrochloride], for which the negative-log IC50 (pIC50) at PI3Kα is 5.17; at PI3Kβ it was < 5.00; on PI3Kγ it was < 5.00. Further, the midpoint of the response in assay [1], the EC50, lay at 14 nM. Moreover, the negative logarithm of the EC50 (pEC50) in assay [2] is 6.00.
